In brackets after ≈: the same amount, converted by molar mass.
Columns and labels:
[1] = Toxicity in brine shrimp larvae; assay type: organism-based; conditions: artemia, in vivo
P388 = experiment: Cytotoxicity against mouse P388 cells; assay type: functional; conditions: read-out: ED50 (the source's name)

## CC(O)C#CC#CC#CC#CCCCCCCCC(=O)O (single isomer, unassigned; (-))
[1]
  LC50: 5.06 µg/mL (≈ 17.8 µM)
P388
  EC50: 0.53 µg/mL (≈ 1.86 µM)

From ChEMBL document CHEMBL1147280, “Isolation Of A Novel Cytotoxic Polyacetylene From A Traditional Anthelmintic Medicinal Plant, Minquartia guianensis” (J Nat Prod, 1989)
